Four compounds from article PMC12203697, “Bioactive constituents from the edible seaweed Halymenia hawaiiana (Rhodophyta)” (Pharmaceutical Biology, 2025) can be followed below.

Data set [1] relates to A549 human lung carcinoma epithelial cells. The data set is described as follows: SRB cytotoxicity assay, A549 cells. To be noted: for Selectivity Index (SI): A549 (cancerous) versus NIH/3T3 (non-cancerous), SRB 72 h; for IC50: Homo sapiens, A549, 72 h, read-out: IC50, cytotoxicity against A549 cells. The method, then: After incubation, cells were fixed with trichloroacetic acid (Cat. No. T4885, Sigma-Aldrich, USA), stained with SRB (Cat. No. S9012, Sigma-Aldrich, USA), and the absorbance was measured at 515 nm. Percent cell death was calculated using the following equation: % Cell death=(ODc−OD0)‐(ODs−OD0)/(ODc−OD0)×100
(§1) OD0 = Optical density of cells before treatment (baseline reading).
ODC = Optical density of untreated control cells after 72 h.
ODS = Optical density of cells treated with the test sample after 72 h.
Non-linear regression analysis was performed using GraphPad Prism to calculate the IC50 value. This value reflects the concentration needed to inhibit cell growth by 50%.
All data are presented as mean ± standard error of the mean (SEM) and were collected from three separate experiments. Statistical analyses were conducted using Student’s t-test or ANOVA, followed by Tukey’s multiple comparisons test. Significance is indicated by *p < 0.05, **p < 0.01, and ***p < 0.001.

The subject of another data set is MRSA POB2. The data set is described as follows: Antibacterial MIC, broth microdilution with resazurin. The format is cell-based, Staphylococcus aureus. To be noted: Staphylococcus aureus; MRSA POB2, Gram-positive; read-out: MIC. An excerpt:
(§2) Methicillin-resistant Staphylococcus aureus (MRSA), methicillin-susceptible S. aureus (MSSA), and Gram-negative clinical isolates of bacteria [Escherichia coli (9637) and Serratia marcescens ATCC 13880] were used for this study. […] MSSA HBP10, MSSA LUU7, MSSA R113, S. aureus ONE9, and MSSA POB2 were isolated in Hawaiʻi (Gerken et al. [2021]). Mueller Hinton Broth (MHB, GTIN:00382902979630, Becton, Dickinson and Company, Franklin Lakes, NJ, USA) and Mueller Hinton Agar (MHA, GTIN:00382902252504, Becton, Dickinson and Company, Franklin Lakes, NJ, USA,) were used for bacterial inoculation. MRSA was a pathogen strain causing hospital-acquired infections in 1982. This strain easily acquires resistance to antibiotics, such as vancomycin. MSSA strains isolated from the Island of Hawaiʻi included: Honolʻii Beach Park (HBP10) carry the genes erm(C), aph(3′)-III, and mecA, which provide resistance to macrolide, aminoglycoside, and beta-lactam antibiotics, respectively; Wailuku River (LUU7) which contains the blaZ gene (beta-lactam resistance) (Gerken et al. [2021]). Richardson’s Beach Park (R113) and Onekahakaha (ONE9) which is known for its virulence factors (hlgA, hlgB, hlgC, lukD, and lukE).
(§3) The minimum inhibitory concentrations (MICs) were determined using a two-fold serial dilution method with MHB following the recommendations of the Clinical and Laboratory Standards Institute (CLSI [2012]; Elshikh et al. [2016]). In brief, serial two-fold dilutions of the samples in DMSO were mixed with MHB in a 96-well microplate. Then, 50 µL of bacteria suspension was added to each well, resulting in a final concentration of 1 × 10^4 colony-forming units/well. The plates were incubated at 35–37 °C for 18–24 hr. After incubation, 10 µL of 0.18% resazurin (Cat. No. R7017, Sigma-Aldrich, USA) was added to each well (Elshikh et al. [2016]). The MIC was assessed within 2–3 hr after the addition of resazurin. All antimicrobial assays were performed in triplicate, using vancomycin (Cat. No. SBR00001, Sigma-Aldrich, USA) and gentamicin (Cat. No. G1397, Sigma-Aldrich, USA) as standard controls.

The next data set relates to MRSA HBP10. The description is as above. In kind it is cell-based, Staphylococcus aureus. Particulars: MRSA HBP10, Gram-positive.
From the text: as §2, §3

In the next data set the test system is S. aureus NEWMAN. The data set is described as above. The format is cell-based, Staphylococcus aureus. Particulars: S. aureus NEWMAN, Gram-positive.
From the text: as §2, §3

The subject of data set [2] is LPS-induced nitric oxide (NO) production in RAW 264.7 cells. The data set is described as follows: Inhibition of NO generation in LPS-induced RAW 264.7 cells (Griess). In kind it is cell-based, murine. Particulars: for IC50: Mus musculus. The method, then: The nitrite concentration in the culture medium was measured to indicate nitric oxide (NO) production as previously described (Min et al. [2009]). The murine macrophage RAW 264.7 cell line was obtained from ATCC, Manassas, VA, USA, and maintained in Dulbecco’s modified Eagle’s medium supplemented with 10% heat-inactivated FBS (Cat. No. A5670801, Gibco BRL Co, Grand Island, NY, USA), penicillin G (100 units/mL) (Cat. No. P7794, Sigma-Aldrich, USA), streptomycin (100 µg/mL) (Cat. No. S9137, Sigma-Aldrich, USA), and L-glutamine (2 mM) (Cat. No. 25030081, Gibco BRL Co, Grand Island, NY, USA). In brief, RAW 264.7 cells were seeded at a density of 4 × 10^4 cells/well in phenol red-free media (Cat. No. 11835030, Gibco, USA) in a 96-well plate, and incubated in a humidified incubator with 5% CO2 at 37 °C for 24 hr. […] The concentration of nitric oxide production was assessed using the Griess reagent, which consists of a 1:1 (v/v) mixture of 1% sulfanilamide (Cat No. A13001, Alfa Aesar, Massachusetts, USA) in H3PO4 and N-(1-naphthyl)ethylenediamine dihydrochloride (Cat. No. 102397, MP Biomedicals, USA). Absorbance was recorded with a microplate reader (SynergyMx, BioTeK, Winooski, VT, USA) at 540 nm. A standard curve was created using sodium nitrite (1–100 μM) (Cat. No. 44227, Alfa Aesar, Massachusetts, USA). A sulforhodamine B (SRB) assay was employed to assess the cellular viability of the samples with RAW 264.7 cells under a similar experimental setup. The final % inhibition of NO production was adjusted based on cell viability.

Another data set has as its system MSSA R113. The data set is described as follows: Antibacterial MIC, broth microdilution with resazurin. The format is cell-based. To be noted: Staphylococcus aureus; MSSA R113, Gram-positive; read-out: MIC.
From the text: as §2, §3

Another data set has as its system E. coli. The data set is described as above. The format is cell-based. To be noted: Escherichia coli, Gram-negative.
From the text: as §2, §3

Another data set concerns MRSA USA300. The data set is described as above. Particulars: Staphylococcus aureus; MRSA USA300, Gram-positive; read-out: MIC. The format is cell-based.
From the text: as §2, §3

Another data set relates to MSSA LUU7. Described as above. Particulars: Staphylococcus aureus; MSSA LUU7, Gram-positive; read-out: MIC. In kind it is cell-based.
From the text: as §2, §3

Data set [3] can be described thus: SRB cytotoxicity assay, NIH/3T3 cells. To be noted: mouse, NIH/3T3 fibroblasts (non-tumorigenic). In kind it is cell-based, murine.
From the text: as §1

The mark [4] stands for this setting: Staphylococcus aureus, read-out: MIC.

In brackets after ≈: the same amount, converted by molar mass. Where two headings read alike, the source gives them in different places.

As for `Nc1ccn([C@H]2C[C@H](O)[C@@H](CO)O2)c(=O)n1` [Compound 1, deoxycytidine], the “cytotoxic response against A549 cells (in words)” value in data set [1] (SRB assay, 72 h, highest concentration tested 100 µg/ml) is on record as “no cytotoxic response”. Further, the MIC in the data set with MRSA POB2, in the data set with MRSA HBP10 (setting [4]), in the data set on S. aureus NEWMAN (setting [4]), with MSSA R113, against E. coli and in the data set with MRSA USA300 was 128 µg/mL (≈ 563 µM) each time. Moreover, the minimum inhibitory concentration (MIC) in the data set on MSSA LUU7 was 128 µg/mL (≈ 563 µM). Further, in data set [2] (RAW 264.7 cells, LPS-induced, highest concentration 50 μg/mL), the “NO inhibitory activity (in words)” value was “no significant NO inhibitory activity”.

On to `CC(C)CCC[C@@H](C)[C@H]1CC[C@H]2[C@@H]3CC=C4C[C@@H](O)CC[C@]4(C)[C@H]3CC[C@]12C` [Compound 9, cholesterol], for which the “Selectivity Index (SI)” value in [1] was found to be 1.03. Besides, the half-inhibitory concentration (IC50) in data set [1] turned out to be 176 ± 5.3 µM; in data set [2] (RAW264.7, RAW 264.7 cells, LPS 1 μg/mL, adjusted for cell viability, read-out: IC50, inhibition of LPS-induced NO production), 50.2 ± 2.2 µM. In addition, the MIC with MRSA POB2 stood at 128 µg/mL (≈ 331 µM); in the data set on MRSA HBP10 (setting [4]) it was 128 µg/mL (≈ 331 µM); with S. aureus NEWMAN (setting [4]), 64 µg/mL (≈ 166 µM); in the data set on MSSA R113, 128 µg/mL (≈ 331 µM); in the data set on E. coli it was 128 µg/mL (≈ 331 µM); with MRSA USA300 it was 128 µg/mL (≈ 331 µM). In addition, in the data set with MSSA LUU7, the MIC worked out at 128 µg/mL (≈ 331 µM). Further, the “inhibition of NO production at 5 µg/ml (in words)” value in data set [2] (RAW 264.7 cells, LPS-induced) is listed as “significant (p > 0.001) inhibition”. In data set [3], this compound had an IC50 at 72 h of 181 ± 8.04 µM.

For `CC(C)CCC[C@@H](C)[C@H]1CCC2[C@@]34C=C[C@]5(C[C@@H](O)CC[C@]5(C)C3CC[C@@]21C)OO4` (some centres unmarked) [Compound 10, 7-dehydrochoresterol peroxide], in [1], the “Selectivity Index (SI)” value was determined as 1.12. For the same compound, the IC50 is 86.1 µM in data set [1] and 53.6 ± 2.3 µM in data set [2] (RAW264.7, read-out: IC50, inhibition of LPS-induced NO production). The MIC came out at 128 µg/mL (≈ 307 µM) in the data set on MRSA POB2; 32 µg/mL (≈ 76.8 µM) against MRSA HBP10; 32 µg/mL (≈ 76.8 µM) with MRSA HBP10 (setting [4]); 8 µg/mL (≈ 19.2 µM) against S. aureus NEWMAN; 8 µg/mL (≈ 19.2 µM) in the data set with S. aureus NEWMAN (setting [4]); 128 µg/mL (≈ 307 µM) with MSSA R113. In addition, the MIC in the data set with E. coli, in the data set on MRSA USA300 and with MSSA LUU7 was 128 µg/mL (≈ 307 µM) each time. The “inhibition of NO production at 5 µg/ml (in words)” value in [2] (RAW 264.7 cells, LPS-induced) is given as “significant (p > 0.001) inhibition”. The compound also registered a half-maximal inhibitory concentration (IC50) at 72 h in data set [3] of 96.6 ± 4.34 µM.

As for `CC(C)CCC[C@@H](C)[C@H]1CCC2[C@]1(C)CC=C1[C@]23C=C[C@]2(C[C@@H](O)CC[C@]12C)OO3` (stereo partly drawn) [Compound 11, (3β-5α-8α)5,8-epidioxycholesta-6,9(1)-diene-3-ol], the “Selectivity Index (SI)” value in data set [1] is given as 1.05. Further, in [1], the IC50 came out at 137 ± 4.4 µM. Moreover, the MIC came to 128 µg/mL (≈ 309 µM) with MRSA POB2; 64 µg/mL (≈ 154 µM) in the data set on MRSA HBP10; 64 µg/mL (≈ 154 µM) in the data set on MRSA HBP10 (setting [4]); 8 µg/mL (≈ 19.3 µM) in the data set on S. aureus NEWMAN; 8 µg/mL (≈ 19.3 µM) in the data set on S. aureus NEWMAN (setting [4]); 128 µg/mL (≈ 309 µM) in the data set with MSSA R113. Moreover, the MIC in the data set with E. coli, in the data set with MRSA USA300 and with MSSA LUU7 was 128 µg/mL (≈ 309 µM) throughout. Also, the IC50 at 72 h in data set [3] worked out at 144 ± 6.15 µM.
